Active and inactive are the calls of the source. Rule as the data show it, for most assays here: actives have a measured EC50 and inactives only a lower limit.
How the values were obtained:
[1] = biological target: T1, Corticotropin-releasing factor receptor 2/Corticotropin-releasing factor-binding protein (Homo sapiens, UniProt P24387+Q13324); assay: Dose Response confirmation of uHTS hits for small molecule antagonists of the CRF-binding protein and CRF-R2 receptor complex.; assay type: functional; conditions: read-out: IC50_Mean
T1 sequence (Q13324 whole entry): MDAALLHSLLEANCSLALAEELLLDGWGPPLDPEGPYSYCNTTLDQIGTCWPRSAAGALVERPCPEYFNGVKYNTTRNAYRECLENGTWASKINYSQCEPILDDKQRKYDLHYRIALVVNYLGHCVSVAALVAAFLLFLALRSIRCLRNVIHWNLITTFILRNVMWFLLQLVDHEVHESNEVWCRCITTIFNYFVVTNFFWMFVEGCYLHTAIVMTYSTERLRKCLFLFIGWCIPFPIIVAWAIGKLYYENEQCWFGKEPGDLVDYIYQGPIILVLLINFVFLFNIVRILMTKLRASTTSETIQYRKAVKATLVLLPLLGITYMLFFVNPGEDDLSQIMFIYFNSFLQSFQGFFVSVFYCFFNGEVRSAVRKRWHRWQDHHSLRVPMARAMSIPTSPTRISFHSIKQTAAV
T1 sequence (P24387 whole entry): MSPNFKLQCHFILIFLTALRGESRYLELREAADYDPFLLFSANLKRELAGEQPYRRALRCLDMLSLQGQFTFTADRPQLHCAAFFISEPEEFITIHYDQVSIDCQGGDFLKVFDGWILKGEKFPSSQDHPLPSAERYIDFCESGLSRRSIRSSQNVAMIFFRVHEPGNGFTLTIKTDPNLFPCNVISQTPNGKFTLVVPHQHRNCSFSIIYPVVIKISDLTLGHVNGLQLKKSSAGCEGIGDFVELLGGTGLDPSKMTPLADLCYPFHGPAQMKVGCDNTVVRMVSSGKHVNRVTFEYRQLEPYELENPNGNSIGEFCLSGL

[2] = biological target: T1, Corticotropin-releasing factor receptor 2/Corticotropin-releasing factor-binding protein; assay: activators of CRF receptor 2 with binding protein – uHTS hits, confirmation (AID 602473); assay type: functional; conditions: read-out: EC50_Mean
[3] = biological target: T2, Replicative DNA helicase DnaB (Mycobacterium tuberculosis, UniProt P9WMR3); assay: DnaB intein splicing inhibitors, dose response, biochemical, cell-free fluorescence (AID 449749); assay type: functional
T2 sequence (P9WMR3 whole entry): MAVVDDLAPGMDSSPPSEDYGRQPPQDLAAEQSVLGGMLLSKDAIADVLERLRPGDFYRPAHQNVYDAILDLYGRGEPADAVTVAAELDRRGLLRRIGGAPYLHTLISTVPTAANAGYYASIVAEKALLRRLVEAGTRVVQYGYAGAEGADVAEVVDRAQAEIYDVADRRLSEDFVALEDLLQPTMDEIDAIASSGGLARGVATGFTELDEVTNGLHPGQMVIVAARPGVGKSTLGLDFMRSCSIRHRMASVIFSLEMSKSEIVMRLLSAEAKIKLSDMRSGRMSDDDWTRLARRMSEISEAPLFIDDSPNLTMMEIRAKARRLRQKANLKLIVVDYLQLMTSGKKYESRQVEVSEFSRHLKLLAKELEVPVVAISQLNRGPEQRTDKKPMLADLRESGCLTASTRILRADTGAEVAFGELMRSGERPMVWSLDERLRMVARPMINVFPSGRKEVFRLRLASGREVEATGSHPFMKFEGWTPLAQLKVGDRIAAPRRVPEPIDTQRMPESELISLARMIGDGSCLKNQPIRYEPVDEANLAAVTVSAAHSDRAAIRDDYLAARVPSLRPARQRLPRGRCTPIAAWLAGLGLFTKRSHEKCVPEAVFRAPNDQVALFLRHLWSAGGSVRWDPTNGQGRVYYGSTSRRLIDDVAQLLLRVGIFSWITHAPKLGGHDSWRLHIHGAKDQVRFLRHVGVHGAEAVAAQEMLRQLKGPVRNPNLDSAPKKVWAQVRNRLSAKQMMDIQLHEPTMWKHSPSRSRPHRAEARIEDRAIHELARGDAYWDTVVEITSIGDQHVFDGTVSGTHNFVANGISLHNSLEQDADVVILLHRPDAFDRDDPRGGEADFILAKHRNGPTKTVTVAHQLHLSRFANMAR

Protein RecA = biological target: T3, Protein RecA (Mycobacterium tuberculosis, UniProt P9WHJ3); assay: Fluorescence Cell-Free Homogeneous Dose Retest to Identify Inhibitors of RecA-Intein Splicing Activity. [Related pubchem assays (depositor defined):AID2097, AID2223, AID489010, AID492950]; assay type: functional
T3 sequence (P9WHJ3 whole entry): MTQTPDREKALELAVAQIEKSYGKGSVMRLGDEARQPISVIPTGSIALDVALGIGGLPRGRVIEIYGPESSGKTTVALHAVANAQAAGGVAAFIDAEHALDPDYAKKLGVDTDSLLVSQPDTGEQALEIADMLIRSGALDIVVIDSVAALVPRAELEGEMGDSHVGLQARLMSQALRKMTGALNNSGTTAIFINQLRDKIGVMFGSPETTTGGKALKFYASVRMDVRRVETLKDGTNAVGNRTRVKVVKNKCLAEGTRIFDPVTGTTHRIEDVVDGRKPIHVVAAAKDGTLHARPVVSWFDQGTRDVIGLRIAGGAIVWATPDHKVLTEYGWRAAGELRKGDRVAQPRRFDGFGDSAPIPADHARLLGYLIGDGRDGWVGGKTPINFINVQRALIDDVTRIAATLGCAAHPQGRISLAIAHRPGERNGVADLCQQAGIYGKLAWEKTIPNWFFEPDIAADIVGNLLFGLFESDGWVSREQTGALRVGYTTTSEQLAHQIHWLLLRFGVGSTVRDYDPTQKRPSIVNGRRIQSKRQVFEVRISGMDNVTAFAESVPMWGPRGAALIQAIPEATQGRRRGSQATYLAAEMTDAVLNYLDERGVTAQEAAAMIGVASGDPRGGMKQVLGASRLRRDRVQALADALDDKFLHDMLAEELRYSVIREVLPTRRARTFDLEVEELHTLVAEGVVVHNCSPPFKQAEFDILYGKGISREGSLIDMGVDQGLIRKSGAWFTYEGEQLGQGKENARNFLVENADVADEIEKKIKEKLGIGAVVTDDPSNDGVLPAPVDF

Streptococcus = assay: Group A Streptococcus viability loss, dose response, counter-screen for streptokinase expression inhibitor project, luminescence, BacTiterGlo (AID 1915); assay type: functional, organism-based;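 also: potency for reduction of bacterial viability or growth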
[4] = system: Streptococcus sp. 'group A'; assay: growth inhibition of control SK(-) GAS strain, dose response, counter-screen for streptokinase expression inhibitor project, luminescence, kanamycin, BacTiterGlo, confirmation (AID 1900); assay type: functional, organism-based
[5] = biological target: T4, Heat shock factor protein 1 (Mus musculus, UniProt P38532); assay: HSF1 potentiators in luciferase reporter cells, confirmation, cell-based, NIH3T3, luminescence, dose retest (AID 435004); assay type: functional;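 also: stress induced by proteasome inhibitor MG132 added 30 min after compound; luciferase reporter driven by HSF1 response element in NIH3T3 cells; actives raise luminescence as potentiators of the MG132 stress response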
T4 sequence (P38532 whole entry): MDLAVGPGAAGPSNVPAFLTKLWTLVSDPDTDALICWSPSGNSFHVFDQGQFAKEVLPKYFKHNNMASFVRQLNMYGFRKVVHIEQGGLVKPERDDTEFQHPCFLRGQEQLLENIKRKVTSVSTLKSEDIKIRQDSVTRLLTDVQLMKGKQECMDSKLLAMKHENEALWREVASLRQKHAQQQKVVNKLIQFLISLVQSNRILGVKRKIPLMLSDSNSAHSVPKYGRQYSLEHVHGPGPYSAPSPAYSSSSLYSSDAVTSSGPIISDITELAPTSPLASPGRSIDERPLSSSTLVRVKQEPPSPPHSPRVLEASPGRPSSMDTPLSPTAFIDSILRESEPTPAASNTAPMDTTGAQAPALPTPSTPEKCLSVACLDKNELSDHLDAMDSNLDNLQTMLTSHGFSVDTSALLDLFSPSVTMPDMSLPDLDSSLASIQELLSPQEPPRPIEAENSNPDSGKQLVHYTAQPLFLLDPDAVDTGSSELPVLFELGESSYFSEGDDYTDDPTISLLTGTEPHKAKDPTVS

INS1 = assay: beta cell apoptosis inhibitors, cytokine rescue, dose response, luminescence, retest (AID 449756); assay type: functional, cell-based; conditions: Rattus norvegicus;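 also: cell death triggered by IL-1 beta plus TNF-alpha plus IFN-gamma mixture; protective hits raise ATP signal compared with cytokine alone wells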
[6] = inhibitors of intracellular T. cruzi replication, confirmation, NIH3T3 host cells, beta-gal luminescence (AID 2044); assay type: functional, cell-based;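 also: intracellular parasites grown in NIH/3T3 mouse fibroblasts as host cells; luminescent beta-galactosidase reporter signal from transgenic T. cruzi replicating inside host cells; inhibitors lower the luminescence signal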
[7] = cytotoxicity toward NIH3T3 fibroblasts, dose response, counter-screen, cell-based, ATP luminescence, mouse fibroblasts (AID 2010); assay type: functional;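 also: cells exposed to compound for about 90 hours before reading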

COc1ccc(Cl)cc1NC(=O)c1ccoc1C
IC50 [1]: > 47.1 µM (inactive) | EC50 [2]: > 53 µM (inactive)

Cc1cc(C)cc(NC(=O)C2CCCN(c3nccc(C)n3)C2)c1 (stereo unspecified)
IC50 [1]: > 47.1 µM (inactive) | EC50 [2]: > 53 µM (inactive)

Cc1n[nH]c(=S)n(/N=C/c2cccs2)c1=O
IC50 [1]: > 47.1 µM (inactive) | EC50 [2]: > 53 µM (inactive)

N=C(CN1CCCCC1)NS(=O)(=O)c1cc(Cl)cc(Cl)c1
IC50 [1]: > 47.1 µM (inactive) | EC50 [2]: > 53 µM (inactive)

Cc1n[nH]c2c1C1(CCN(C(=O)OCc3ccccc3)CC1)C(C#N)=C(N)O2
AC50 [3]: 13.5 µM (active) | EC50 (Protein RecA): 1.59 µM (active)

C#CCOCCOCCOCCNc1nc(N2CCN(C(=O)Cn3cc(CCO)nn3)CC2)nc(N2CCN(C(=O)[C@H](CCCCN)n3cc(CC(C)O)nn3)CC2)n1 (stereo partly specified)
IC50 [1]: > 47.1 µM (inactive) | EC50 [2]: > 53 µM (inactive)

O=C(Nc1cc([N+](=O)[O-])ccc1O)c1cccc(NC(=O)c2ccco2)c1
EC50 (Streptococcus): 6.8 µM (active) | EC50 [4]: 5.58 µM (active)

COc1cc(/C=C/C(=O)OCc2c(C)noc2C)ccc1OC(F)F
EC50 [5]: > 260 µM (inactive)

O=c1c2ccccc2nc2n1CCS2(=O)=O
AC50 [3]: 37.2 µM (active) | EC50 (Protein RecA): 12.9 µM (active)

COC(=O)Nc1ccc(S(=O)(=O)N2CCC(C(=O)N3CCCC(C)C3)CC2)cc1 (stereo unspecified)
EC50 [5]: > 260 µM (inactive)

NCCCCCc1nnc(SC/C=C/c2ccccc2)o1
EC50 [5]: > 260 µM (inactive)

Cn1c(-c2ccc(-c3ccccc3)cc2)c[nH]c1=S
IC50 [1]: > 47.1 µM (inactive) | EC50 [2]: > 53 µM (inactive)

CN(C)C(=O)c1ccc(=O)n(Cc2ccc(Cl)cc2Cl)c1
EC50 [5]: > 260 µM (inactive)

Cc1ccc(N2C(=O)SC(N(CC(=O)O)c3ccc(C)cc3)C2=O)cc1 (stereo unspecified)
EC50 [5]: > 260 µM (inactive)

O=c1oc(CCO)cc2ccc(Br)cc12
IC50 [1]: > 47.1 µM (inactive) | EC50 [2]: > 53 µM (inactive)

O=C(NC(=S)N1CCN(C/C=C/c2ccccc2)CC1)c1ccc(Cl)nc1
EC50 [5]: > 260 µM (inactive)

COc1ccc(CCNc2oc(-c3ccccc3OC)nc2C#N)cc1
EC50 [5]: > 260 µM (inactive)

CCC1=Nc2cc(C(=O)NCCN3CCCC3)ccc2Sc2ccccc21
AC50 [3]: > 380 µM (inactive) | EC50 (Protein RecA): > 380 µM (inactive)

CC1=NNC(=O)C1C(c1ccc(F)cc1)C(C#N)C#N (stereo unspecified)
AC50 [3]: 7.09 µM (active) | EC50 (Protein RecA): 2.83 µM (active)

Cc1oc(-c2ccccc2Cl)nc1CN1C(=O)CN=C(c2ccccc2)c2ccccc21
EC50 [5]: > 260 µM (inactive)

Cc1ccccc1Cn1ccc(=NCc2ccccc2)cc1
AC50 (INS1): > 260 µM (inactive)

Fc1ccc(C2NC(S)=NC3=C2N2CCC3CC2)cc1 (stereo unspecified)
EC50 [5]: > 260 µM (inactive)

COc1cc(CC(=O)NCc2cccs2)cc(OC)c1OC
IC50 [1]: > 47.1 µM (inactive) | EC50 [2]: > 53 µM (inactive)

Cc1cc2[nH]ncc2cc1NC(=S)NC(=O)c1ccccc1
AC50 [3]: 178 µM (active) | EC50 (Protein RecA): > 380 µM (inactive)

CC(NC(=O)CCCN1C(=O)c2ccccc2C1=O)c1ccc2c(c1)CCCC2 (stereo unspecified)
EC50 [5]: > 260 µM (inactive)

Cn1cnc([N+](=O)[O-])c1Sc1nnc(-c2cccnc2)n1C
AC50 [3]: 38.1 µM (active) | EC50 (Protein RecA): 13.3 µM (active)

CN(c1ccccc1)P(=O)(N1CC1)N1CC1
IC50 [1]: > 47.1 µM (inactive) | EC50 [2]: > 53 µM (inactive)

Cn1cccc1/C=N/NC(=O)Cc1cccs1
AC50 (INS1): > 260 µM (inactive)

O=[N+]([O-])c1ccc(Oc2cccc(Br)c2)c2ccncc12
AC50 [3]: > 380 µM (inactive) | EC50 (Protein RecA): 1.17 µM (active)

COc1ccc(C(CC(=O)O)c2ccc3c(c2)OCO3)cc1 (stereo unspecified)
IC50 [1]: > 47.1 µM (inactive) | EC50 [2]: > 53 µM (inactive)

O=C(O)c1ccc(N(Cc2ccccc2)S(=O)(=O)c2ccccc2)cc1
EC50 [5]: > 260 µM (inactive)

COc1ccc(CN(C)C(=O)c2ccc(NS(=O)(=O)c3ccc(F)cc3)cc2)c(OC)c1OC
AC50 (INS1): > 260 µM (inactive)

CC(C)c1n[nH]c2c1C(Cc1ccccc1)C(C#N)=C(N)O2 (stereo unspecified)
AC50 [3]: 38.7 µM (active) | EC50 (Protein RecA): 8.67 µM (active)

COc1cc(CNC2CCCC2)cc(OC)c1
EC50 [5]: > 260 µM (inactive)

COc1cccc(N(CC(=O)N2CCc3ccccc3C2)S(C)(=O)=O)c1
EC50 [5]: > 260 µM (inactive)

CCOC(=O)NNC(=O)c1[nH]c2ccc(Br)cc2c1-c1ccccc1
IC50 [1]: > 47.1 µM (inactive) | EC50 [2]: > 53 µM (inactive)

Nc1ccc2nc(N3CCOCC3)sc2c1
AC50 [3]: 93.7 µM (active) | EC50 [6]: 1.96 µM (active) | EC50 (Protein RecA): 23.7 µM (active) | EC50 [7]: 5.16 µM (active)

O=c1c2cc(N3CCOCC3)ccc2[nH]c(=S)n1Cc1ccccn1
EC50 [5]: > 260 µM (inactive)

Reference: ChEMBL document CHEMBL1201862, “PubChem BioAssay data set” (2004)
